Assay results as given in ChEMBL document CHEMBL4819067, “Discovery of novel pyrimidine molecules containing boronic acid as VCP/p97 Inhibitors” (Bioorg Med Chem, 2021).

What was measured:
[1] = molecular target: Transitional endoplasmic reticulum ATPase (Homo sapiens, UniProt P55072); assay: Inhibition of p97 (unknown origin) incubated for 60 mins by ADP-Glo assay
[2] = test system: RPMI-8226; assay: Cytotoxicity against human RPMI-8226 cells assessed as reduction in cell viability incubated for 72 hrs by CCK8 assay; format: functional, cell-based
[3] = test system: A549; assay: Cytotoxicity against human A549 cells assessed as reduction in cell viability incubated for 72 hrs by CCK8 assay; format: functional, cell-based; conditions: A549, 72 h
[4] = Homo sapiens, RPMI-8226, 72 h, read-out: IC50

Chain of Transitional endoplasmic reticulum ATPase (P55072 whole entry): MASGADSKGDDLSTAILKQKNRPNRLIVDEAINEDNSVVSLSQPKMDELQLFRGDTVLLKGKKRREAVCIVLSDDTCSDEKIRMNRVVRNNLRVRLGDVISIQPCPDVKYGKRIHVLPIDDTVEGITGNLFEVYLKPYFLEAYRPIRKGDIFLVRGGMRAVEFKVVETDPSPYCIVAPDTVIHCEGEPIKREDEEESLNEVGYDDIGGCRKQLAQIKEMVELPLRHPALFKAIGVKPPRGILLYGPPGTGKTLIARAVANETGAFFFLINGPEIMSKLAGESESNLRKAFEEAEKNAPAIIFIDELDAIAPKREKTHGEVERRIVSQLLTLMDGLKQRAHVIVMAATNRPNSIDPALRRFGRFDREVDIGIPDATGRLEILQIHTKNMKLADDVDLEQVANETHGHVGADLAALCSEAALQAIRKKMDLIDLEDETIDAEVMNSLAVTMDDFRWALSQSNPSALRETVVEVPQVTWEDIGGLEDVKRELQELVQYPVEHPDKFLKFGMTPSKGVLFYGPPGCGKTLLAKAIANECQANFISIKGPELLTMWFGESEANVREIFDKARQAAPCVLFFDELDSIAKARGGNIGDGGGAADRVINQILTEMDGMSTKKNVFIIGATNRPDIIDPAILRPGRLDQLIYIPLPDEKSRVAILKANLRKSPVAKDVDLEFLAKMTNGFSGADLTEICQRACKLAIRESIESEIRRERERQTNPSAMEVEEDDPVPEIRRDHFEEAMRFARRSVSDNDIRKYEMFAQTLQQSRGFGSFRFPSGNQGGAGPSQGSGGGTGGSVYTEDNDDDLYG

Structure (SMILES)	IC50 [1] [µM]	IC50 [2, 4] [µM]	IC50 [3] [µM]	IC50 ([2]; rpmi-8226)
CC#CC(=O)Nc1cccc2c1cc(C)n2-c1ncc(OC)c(NCc2cccc(B(O)O)c2)n1	0.032	2.4	6.1	–
Cc1cc2c(NC(=O)c3ccco3)cccc2n1-c1nc(NCc2cccc(B(O)O)c2)c2ccccc2n1	0.162	3.2	5.8	–
CC#CC(=O)Nc1cccc2c1cc(C)n2-c1nc(NCc2cccc(B(O)O)c2)c2ccccc2n1	0.114	2.2	5.6	–
Cc1cc2c(NS(C)(=O)=O)cccc2n1-c1nc2c(c(NCc3cccc(B(O)O)c3)n1)CCCC2	0.0456	1.55	2.42	–
Cc1cc2c(NS(C)(=O)=O)cccc2n1-c1nc2c(c(NCc3cccc(B(O)O)c3)n1)CCC2	0.0547	0.86	2.8	–
Cc1cc2c(NC(=O)CC#N)cccc2n1-c1nc2c(c(NCc3cccc(B(O)O)c3)n1)CCC2	0.692	–	–	–
Cc1cc2c(NC(=O)c3ccno3)cccc2n1-c1nc2c(c(NCc3cccc(B(O)O)c3)n1)CCC2	0.241	–	–	–
COc1cnc(-n2c(C)cc3c(NC(=O)c4ccco4)cccc32)nc1NCc1cccc(B(O)O)c1	0.0974	1.9	3.77	–
Cc1cc2c(NC(=O)CCCl)cccc2n1-c1nc2c(c(NCc3cccc(B(O)O)c3)n1)CCC2	0.436	–	–	–
Cc1cc2c(NS(C)(=O)=O)cccc2n1-c1nc(NCc2cccc(B(O)O)c2)c2ccccc2n1	0.0889	3.6	5.6	–
Cc1cc2c(NC(=O)c3ccco3)cccc2n1-c1nc2c(c(NCc3cccc(B(O)O)c3)n1)CCC2	0.0573	2.3	3.55	–
Cc1cc2c(NC(=O)c3cscn3)cccc2n1-c1nc2c(c(NCc3cccc(B(O)O)c3)n1)CCC2	0.468	–	–	–
Cc1cc2c(NC(=O)c3ccco3)cccc2n1-c1nc2c(c(NCc3cccc(B(O)O)c3)n1)CCCC2	0.0934	2.33	3.12	–

Further lines, with some results ahead:

IC50 [1] [µM]	Structure (SMILES)	IC50 [2, 4] [µM]	IC50 [3] [µM]	IC50 ([2]; rpmi-8226)
0.0914	C#CC(=O)Nc1cccc2c1cc(C)n2-c1nc2c(c(NCc3cccc(B(O)O)c3)n1)CCC2	1.27	2.1	–
0.0898	CC#CC(=O)Nc1cccc2c1cc(C)n2-c1nc2c(c(NCc3cccc(B(O)O)c3)n1)CCCC2	1.5	2.15	–
0.117	Cc1cc2c(NS(C)(=O)=O)cccc2n1-c1nc2c(c(NCc3cccc(B(O)O)c3)n1)COCC2	5.1	> 10	–
0.0586	CC#CC(=O)Nc1cccc2c1cc(C)n2-c1nc2c(c(NCc3cccc(B(O)O)c3)n1)CCC2	1.73	3.15	–
0.091	Cc1cc2c(NC(=O)c3ccco3)cccc2n1-c1nc2c(c(NCc3cccc(B(O)O)c3)n1)COCC2	2.7	4.38	–
0.192	C=CC(=O)Nc1cccc2c1cc(C)n2-c1nc2c(c(NCc3cccc(B(O)O)c3)n1)CCC2	2.94	4.75	–
0.117	CC#CC(=O)Nc1cccc2c1cc(C)n2-c1nc2c(c(NCc3cccc(B(O)O)c3)n1)COCC2	2.9	4.1	–
0.166	C/C=C/C(=O)Nc1cccc2c1cc(C)n2-c1nc2c(c(NCc3cccc(B(O)O)c3)n1)CCC2	–	4.45	Not Active
0.258	Cc1cc2c(NC(=O)CCl)cccc2n1-c1nc2c(c(NCc3cccc(B(O)O)c3)n1)CCC2	–	–	–
